# From patent US12617779B2, “Self degradation-type CDK9 inhibitor prodrug and liposome encapsulating same” (Sumitomo Pharma Co., Ltd., priority 2021, dated 2026)
# Assay: Evaluation of conversion rate to active form in buffer solution (Experimental Example 1)
# Format: physicochemical
# Conditions: for Alvocidib amount produced, after subtracting the 28.2% Alvocidib of the sample (Table 36-2) / Production rate of Alvocidib / Residual rate: 37° C.; for Production rate of Alvocidib / Residual rate: 25 umol/L in buffer solution; for Stability in buffer solution at pH 5: pH 5, 37° C., up to 2 or 3 hours; for Conversion to Alvocidib at pH 7.4: pH 7.4, 37° C., up to 3 hours
# How it was run: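 25 umol/L cpd, 37° C; 50 mM citrate pH 5.0/5.5, 50 mM phosphate pH 6.0/6.5/7.0/7.4. HPLC at 0–3 h: residual rate and Alvocidib production rate.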
smiles,measurement,setting,value
"CN1CC[C@H](c2c(OC(=O)N(CCCC(F)(F)F)CC3CCCCN3)cc(O)c3c(=O)cc(-c4ccccc4Cl)oc23)[C@H](O)C1 (stereo partly drawn) [Example 14, 2-(2-chlorophenyl)-5-hydroxy-8-[(3S,4R)-3-hydroxy-1-methylpiperidin-4-yl]-4-oxo-4H-1-benzopyran-7-yl [(piperidin-2-yl)methyl](4,4,4-trifluorobutyl)carbamate]","Alvocidib amount produced, after subtracting the 28.2% Alvocidib of the sample (Table 36-2)","pH5.0, 0 hr",1.0%
same,Production rate of Alvocidib,"pH5.0, 0 hr",29.2%
same,Residual rate,"pH5.0, 0 hr",56.6%
same,Stability in buffer solution at pH 5,,stable
same,"Alvocidib amount produced, after subtracting the 28.2% Alvocidib of the sample (Table 36-2)","pH5.0, 0.5 hr",1.7%
same,Production rate of Alvocidib,"pH5.0, 0.5 hr",29.9%
same,Residual rate,"pH5.0, 0.5 hr",54.6%
same,"Alvocidib amount produced, after subtracting the 28.2% Alvocidib of the sample (Table 36-2)","pH5.0, 1 hr",3.5%
same,Production rate of Alvocidib,"pH5.0, 1 hr",31.7%
same,Residual rate,"pH5.0, 1 hr",53.0%
same,"Alvocidib amount produced, after subtracting the 28.2% Alvocidib of the sample (Table 36-2)","pH5.0, 2 hr",4.9%
same,Production rate of Alvocidib,"pH5.0, 2 hr",33.1%
same,Residual rate,"pH5.0, 2 hr",51.0%
same,"Alvocidib amount produced, after subtracting the 28.2% Alvocidib of the sample (Table 36-2)","pH5.0, 3 hr",5.2%
same,Production rate of Alvocidib,"pH5.0, 3 hr",33.4%
same,Residual rate,"pH5.0, 3 hr",52.7%
same,"Alvocidib amount produced, after subtracting the 28.2% Alvocidib of the sample (Table 36-2)","pH5.5, 0 hr",0.8%
same,Production rate of Alvocidib,"pH5.5, 0 hr",29.0%
same,Residual rate,"pH5.5, 0 hr",57.5%
same,"Alvocidib amount produced, after subtracting the 28.2% Alvocidib of the sample (Table 36-2)","pH5.5, 0.5 hr",2.7%
same,Production rate of Alvocidib,"pH5.5, 0.5 hr",30.9%
same,Residual rate,"pH5.5, 0.5 hr",55.8%
same,"Alvocidib amount produced, after subtracting the 28.2% Alvocidib of the sample (Table 36-2)","pH5.5, 1 hr",4.5%
same,Production rate of Alvocidib,"pH5.5, 1 hr",32.7%
same,Residual rate,"pH5.5, 1 hr",54.3%
same,"Alvocidib amount produced, after subtracting the 28.2% Alvocidib of the sample (Table 36-2)","pH5.5, 2 hr",7.2%
same,Production rate of Alvocidib,"pH5.5, 2 hr",35.4%
same,Residual rate,"pH5.5, 2 hr",48.6%
same,"Alvocidib amount produced, after subtracting the 28.2% Alvocidib of the sample (Table 36-2)","pH5.5, 3 hr",9.7%
same,Production rate of Alvocidib,"pH5.5, 3 hr",37.9%
same,Residual rate,"pH5.5, 3 hr",47.7%
same,"Alvocidib amount produced, after subtracting the 28.2% Alvocidib of the sample (Table 36-2)","pH6.0, 0 hr",0.9%
same,Production rate of Alvocidib,"pH6.0, 0 hr",29.1%
same,Residual rate,"pH6.0, 0 hr",55.8%
same,"Alvocidib amount produced, after subtracting the 28.2% Alvocidib of the sample (Table 36-2)","pH6.0, 0.5 hr",6.2%
same,Production rate of Alvocidib,"pH6.0, 0.5 hr",34.4%
same,Residual rate,"pH6.0, 0.5 hr",49.7%
same,"Alvocidib amount produced, after subtracting the 28.2% Alvocidib of the sample (Table 36-2)","pH6.0, 1 hr",10.9%
same,Production rate of Alvocidib,"pH6.0, 1 hr",39.1%
same,Residual rate,"pH6.0, 1 hr",44.8%
same,"Alvocidib amount produced, after subtracting the 28.2% Alvocidib of the sample (Table 36-2)","pH6.0, 2 hr",22.0%
same,Production rate of Alvocidib,"pH6.0, 2 hr",50.2%
same,Residual rate,"pH6.0, 2 hr",31.8%
same,"Alvocidib amount produced, after subtracting the 28.2% Alvocidib of the sample (Table 36-2)","pH6.0, 3 hr",27.7%
same,Production rate of Alvocidib,"pH6.0, 3 hr",55.9%
same,Residual rate,"pH6.0, 3 hr",24.5%
same,"Alvocidib amount produced, after subtracting the 28.2% Alvocidib of the sample (Table 36-2)","pH6.5, 0 hr",3.4%
same,Production rate of Alvocidib,"pH6.5, 0 hr",31.6%
same,Residual rate,"pH6.5, 0 hr",52.2%
same,"Alvocidib amount produced, after subtracting the 28.2% Alvocidib of the sample (Table 36-2)","pH6.5, 0.5 hr",17.6%
same,Production rate of Alvocidib,"pH6.5, 0.5 hr",45.8%
same,Residual rate,"pH6.5, 0.5 hr",35.2%
same,"Alvocidib amount produced, after subtracting the 28.2% Alvocidib of the sample (Table 36-2)","pH6.5, 1 hr",28.9%
same,Production rate of Alvocidib,"pH6.5, 1 hr",57.1%
same,Residual rate,"pH6.5, 1 hr",22.9%
same,"Alvocidib amount produced, after subtracting the 28.2% Alvocidib of the sample (Table 36-2)","pH6.5, 2 hr",34.8%
same,Production rate of Alvocidib,"pH6.5, 2 hr",63.0%
same,Residual rate,"pH6.5, 2 hr",14.0%
same,"Alvocidib amount produced, after subtracting the 28.2% Alvocidib of the sample (Table 36-2)","pH6.5, 3 hr",44.4%
same,Production rate of Alvocidib,"pH6.5, 3 hr",72.6%
same,Residual rate,"pH6.5, 3 hr",5.1%
same,"Alvocidib amount produced, after subtracting the 28.2% Alvocidib of the sample (Table 36-2)","pH7.0, 0 hr",2.5%
same,Production rate of Alvocidib,"pH7.0, 0 hr",30.7%
same,Residual rate,"pH7.0, 0 hr",53.4%
same,"Alvocidib amount produced, after subtracting the 28.2% Alvocidib of the sample (Table 36-2)","pH7.0, 0.5 hr",33.8%
same,Production rate of Alvocidib,"pH7.0, 0.5 hr",62.0%
same,Residual rate,"pH7.0, 0.5 hr",16.3%
same,"Alvocidib amount produced, after subtracting the 28.2% Alvocidib of the sample (Table 36-2)","pH7.0, 1 hr",39.8%
same,Production rate of Alvocidib,"pH7.0, 1 hr",68.0%
same,Residual rate,"pH7.0, 1 hr",8.4%
same,"Alvocidib amount produced, after subtracting the 28.2% Alvocidib of the sample (Table 36-2)","pH7.0, 2 hr",47.3%
same,Production rate of Alvocidib,"pH7.0, 2 hr",75.5%
same,Residual rate,"pH7.0, 2 hr",1.1%
same,"Alvocidib amount produced, after subtracting the 28.2% Alvocidib of the sample (Table 36-2)","pH7.0, 3 hr",47.0%
same,Production rate of Alvocidib,"pH7.0, 3 hr",75.2%
same,Residual rate,"pH7.0, 3 hr",0.4%
same,"Alvocidib amount produced, after subtracting the 28.2% Alvocidib of the sample (Table 36-2)","pH7.4, 0 hr",7.7%
same,Production rate of Alvocidib,"pH7.4, 0 hr",35.9%
same,Residual rate,"pH7.4, 0 hr",45.8%
same,Conversion to Alvocidib at pH 7.4,,rapidly converted to Alvocidib
same,"Alvocidib amount produced, after subtracting the 28.2% Alvocidib of the sample (Table 36-2)","pH7.4, 0.5 hr",43.4%
same,Production rate of Alvocidib,"pH7.4, 0.5 hr",71.6%
same,Residual rate,"pH7.4, 0.5 hr",4.6%
same,"Alvocidib amount produced, after subtracting the 28.2% Alvocidib of the sample (Table 36-2)","pH7.4, 1 hr",48.4%
same,Production rate of Alvocidib,"pH7.4, 1 hr",76.6%
same,Residual rate,"pH7.4, 1 hr",0.7%
same,"Alvocidib amount produced, after subtracting the 28.2% Alvocidib of the sample (Table 36-2)","pH7.4, 2 hr",47.4%
same,Production rate of Alvocidib,"pH7.4, 2 hr",75.6%
same,Residual rate,"pH7.4, 2 hr",0.2%
same,"Alvocidib amount produced, after subtracting the 28.2% Alvocidib of the sample (Table 36-2)","pH7.4, 3 hr",47.5%
same,Production rate of Alvocidib,"pH7.4, 3 hr",75.7%
same,Residual rate,"pH7.4, 3 hr",0.3%
"CN1CC[C@H](c2c(OC(=O)N(CCC(F)(F)F)CC3CCCCN3)cc(O)c3c(=O)cc(-c4ccccc4Cl)oc23)[C@H](O)C1 (stereo partly drawn) [Example 13, 2-(2-chlorophenyl)-5-hydroxy-8-[(3S,4R)-3-hydroxy-1-methylpiperidin-4-yl]-4-oxo-4H-1-benzopyran-7-yl [(piperidin-2-yl)methyl](3,3,3-trifluoropropyl)carbamate]",Production rate of Alvocidib,"pH5.0, 0 hr",2.1%
same,Residual rate,"pH5.0, 0 hr",82.1%
same,Stability in buffer solution at pH 5,,stable
same,Production rate of Alvocidib,"pH5.0, 0.5 hr",3.9%
same,Residual rate,"pH5.0, 0.5 hr",81.7%
same,Production rate of Alvocidib,"pH5.0, 1 hr",4.9%
same,Residual rate,"pH5.0, 1 hr",80.3%
same,Production rate of Alvocidib,"pH5.0, 2 hr",6.3%
same,Residual rate,"pH5.0, 2 hr",78.0%
same,Production rate of Alvocidib,"pH5.0, 3 hr",8.0%
same,Residual rate,"pH5.0, 3 hr",76.1%
same,Production rate of Alvocidib,"pH5.5, 0 hr",2.5%
same,Residual rate,"pH5.5, 0 hr",82.7%
same,Production rate of Alvocidib,"pH5.5, 0.5 hr",5.5%
same,Residual rate,"pH5.5, 0.5 hr",79.2%
same,Production rate of Alvocidib,"pH5.5, 1 hr",8.6%
same,Residual rate,"pH5.5, 1 hr",74.6%
same,Production rate of Alvocidib,"pH5.5, 2 hr",13.9%
same,Residual rate,"pH5.5, 2 hr",67.1%
same,Production rate of Alvocidib,"pH5.5, 3 hr",17.7%
same,Residual rate,"pH5.5, 3 hr",61.8%
same,Production rate of Alvocidib,"pH6.0, 0 hr",3.3%
same,Residual rate,"pH6.0, 0 hr",81.3%
same,Production rate of Alvocidib,"pH6.0, 0.5 hr",11.6%
same,Residual rate,"pH6.0, 0.5 hr",69.8%
same,Production rate of Alvocidib,"pH6.0, 1 hr",21.6%
same,Residual rate,"pH6.0, 1 hr",56.6%
same,Production rate of Alvocidib,"pH6.0, 2 hr",33.3%
same,Residual rate,"pH6.0, 2 hr",40.2%
same,Production rate of Alvocidib,"pH6.0, 3 hr",42.5%
same,Residual rate,"pH6.0, 3 hr",28.3%
same,Production rate of Alvocidib,"pH6.5, 0 hr",3.7%
same,Residual rate,"pH6.5, 0 hr",81.4%
same,Production rate of Alvocidib,"pH6.5, 0.5 hr",27.5%
same,Residual rate,"pH6.5, 0.5 hr",47.7%
same,Production rate of Alvocidib,"pH6.5, 1 hr",47.7%
same,Residual rate,"pH6.5, 1 hr",22.2%
same,Production rate of Alvocidib,"pH6.5, 2 hr",56.7%
same,Residual rate,"pH6.5, 2 hr",9.9%
same,Production rate of Alvocidib,"pH6.5, 3 hr",65.5%
same,Residual rate,"pH6.5, 3 hr",2.8%
same,Production rate of Alvocidib,"pH7.0, 0 hr",5.4%
same,Residual rate,"pH7.0, 0 hr",78.3%
same,Production rate of Alvocidib,"pH7.0, 0.5 hr",49.3%
same,Residual rate,"pH7.0, 0.5 hr",18.7%
same,Production rate of Alvocidib,"pH7.0, 1 hr",65.9%
same,Residual rate,"pH7.0, 1 hr",2.7%
same,Production rate of Alvocidib,"pH7.0, 2 hr",65.1%
same,Residual rate,"pH7.0, 2 hr",0.4%
same,Production rate of Alvocidib,"pH7.0, 3 hr",69.9%
same,Residual rate,"pH7.0, 3 hr",0.0%
same,Production rate of Alvocidib,"pH7.4, 0 hr",9.2%
same,Residual rate,"pH7.4, 0 hr",68.5%
same,Conversion to Alvocidib at pH 7.4,,rapidly converted to Alvocidib
same,Production rate of Alvocidib,"pH7.4, 0.5 hr",65.8%
same,Residual rate,"pH7.4, 0.5 hr",2.2%
same,Production rate of Alvocidib,"pH7.4, 1 hr",65.5%
same,Residual rate,"pH7.4, 1 hr",0.2%
same,Production rate of Alvocidib,"pH7.4, 2 hr",68.6%
same,Residual rate,"pH7.4, 2 hr",0.0%
same,Production rate of Alvocidib,"pH7.4, 3 hr",66.1%
same,Residual rate,"pH7.4, 3 hr",0.0%
